Results published in US4032544A, “3-Cyano-4-hydroxy coumarin derivatives” (Beecham Group Limited, priority 1974, dated 1977).

Tested on: PCA response
Test: rat Passive Cutaneous Anaphylaxis Test (PCA test)
Assay type: in vivo, rat (male Wistar)
Settings: sc, subcutaneous, sodium salt
Procedure: The compounds prepared in the preceding examples were tested in the rat Passive Cutaneous Anaphylaxis Test (PCA test), described below. They were administered as their sodium salts either in pH 7.2 phosphate buffer (for soluble salts) or as a suspension in 1% methyl cellulose (for insoluble salts).
Male Wistar rats of 250-300 g, were injected intraperitoneally with 0.5 ml. of Bordatella pertussis vaccine (containing 4× 10^10 dead organism per ml) and subcutaneously with 0.5 ml. of an emulsion of 100 mg. of ovalbumin in 2 ml. of saline and 3 ml. of incomplete Freunds' adjuvant. Rats were bled by cardiac puncture on day 18, the blood was pooled and separated and serum stored at -20° and thawed only once before use.
0.1 ml. of each of six twofold serial dilutions of the serum in 0.9% saline were injected intradermally into separate sites on the shaved dorsal surface of 250-350 g. Male Wistar rats. 72 hours later the animals were challenged by i.v. injection of 0.3 ml. of 1% ovalbumin mixed with 0.1 ml. of a 5% solution of pontamine sky blue dye both in isotonic saline buffered with pH 7.2 Sorenson buffer (P.B.S.). The rats were killed after 20 minutes and the diameter of the blue wheals at the antibody injection sites were measured. The starting dilution of the serum was adjusted so that there was no response, after challenge, at the site of injection of the highest dilution and a maximum response at the two or three lowest dilutions.
Amounts of the compounds were administered to rats by subcutaneous injection, into the nucal region, of a solution of the compound in P.B.S. or as a suspension in 1% methyl cellulose, each amount a test group of six animals at a specified time prior to intravenous challenge with ovalbumin.
% Inhibition of P.C.A.= 100 (1 -a/b)
For those compounds having insoluble sodium salts, the salts were isolated by reaction of the free cyano compound with 2.5N sodium hydroxide and the filtered sodium salt washed free of alkali with water. The dried salts were then administered as a suspension in 1% methyl cellulose.

[1] = 0 h, 0 mins. prior to challenge
[2] = 0.5 h, 30 mins. prior to challenge
[3] = 10 min, 10 mins. prior to challenge
[4] = 1 h, 60 mins. prior to challenge

Compound	inhibition in vivo at 25 mg/kg [1] [%]	inhibition in vivo at 100 mg/kg [1] [%]	inhibition in vivo at 25 mg/kg [2] [%]	inhibition in vivo at 100 mg/kg [2] [%]	inhibition in vivo at 5 mg/kg [3] [%]	inhibition in vivo at 10 mg/kg [3] [%]	inhibition in vivo at 20 mg/kg [3] [%]	also measured
N#Cc1c(O)c2cc3c(cc2oc1=O)CCCC3 [Example 18, 3-Cyano-4-hydroxy-2-oxo-6,7,8,9-tetrahydro-2H-naphtho [2,3-b] pyran]								inhibition in vivo at 1 mg/kg (10 min, 1 mg/kg, 10 mins. prior to challenge): 2%; inhibition in vivo at 2 mg/kg (10 min, 2 mg/kg, 10 mins. prior to challenge): 22%; inhibition in vivo at 4 mg/kg (10 min, 4 mg/kg, 10 mins. prior to challenge): 52%; inhibition in vivo at 8 mg/kg (10 min, 8 mg/kg, 10 mins. prior to challenge): 67%
Cc1ccc2oc(=O)c(C#N)c(O)c2c1 [Example 13, 3-Cyano-4-hydroxy-6-methyl coumarin]	14	40	21	22				
COc1cccc2c1C(=O)C(C#N)C2=O (stereo not drawn) [Example 5, 2-Cyano-4-methoxy indan-1,3-dione]					28	16	57	inhibition in vivo at 40 mg/kg [3]: 81%
N#CC1C(=O)c2ccccc2C1=O [Example 1, 2-Cyano indan-1,3-dione]	43	64	8	16				
CCc1cc2c(O)c(C#N)c(=O)oc2cc1C [Example 10, 3-Cyano-6-ethyl-4-hydroxy-7-methyl coumarin]			17			71		inhibition in vivo at 25 mg/kg [3]: 67%; inhibition in vivo at 10 mg/kg [2]: 24%
CCc1cc2c(cc1CC)C(=O)C(C#N)C2=O [Example 8, 2-Cyano-5,6-diethyl indan-1,3-dione]					74	90	78	inhibition in vivo at 40 mg/kg [3]: 64%
Cc1cccc2c1C(=O)C(C#N)C2=O (stereo not drawn) [Example 4, 2-Cyano-4-methyl indan-1,3-dione]					21	25	75	inhibition in vivo at 40 mg/kg [3]: 83%
CCOc1ccc2c(O)c(C#N)c(=O)oc2c1 [Example 16, 3-Cyano-7-ethyloxy-4-hydroxy coumarin monohydrate]					59	71	86	inhibition in vivo at 40 mg/kg [3]: 73%
Cc1cccc2c(O)c(C#N)c(=O)oc12 [Example 19, 3-Cyano-4-hydroxy-8-methylcoumarin monohydrate]	48	67	23	35				
Cc1ccc2c(O)c(C#N)c(=O)oc2c1C [Example 21, 3-Cyano-7,8-dimethyl-4-hydroxycoumarin monohydrate]					39	65	97	inhibition in vivo at 2.5 mg/kg [3]: 20%
N#Cc1c(O)c2cc3ccccc3cc2oc1=O [Example 17, 3-Cyano-4-hydroxy-2-oxo-2H-naphtho[2,3-b] pyran]	9	15						inhibition in vivo at 25 mg/kg [4]: 23%; inhibition in vivo at 100 mg/kg [4]: 18%
N#Cc1c(O)c2ccccc2oc1=O [Example 9, 3-Cyano-4-hydroxycoumarin]	64	87	30	40				
CCc1ccc2c(O)c(C#N)c(=O)oc2c1 [Example 15, 3-Cyano-7-ethyl-4-hydroxy coumarin]	34	64	27	17				
N#CC1C(=O)c2cc3ccccc3cc2C1=O [Example 6, 5,6-Benzo-2-cyano indan-1,3-dione]			27	30				inhibition in vivo at 25 mg/kg [3]: 88%; inhibition in vivo at 100 mg/kg [3]: 70%
Cc1cc2c(cc1C)C(=O)C(C#N)C2=O [Example 3, 2-Cyano-5,6-dimethyl indan-1,3-dione]					56	77	92	inhibition in vivo at 2.5 mg/kg [3]: 46%
Cc1ccc2c(c1)C(=O)C(C#N)C2=O (stereo not drawn) [Example 2, 2-Cyano-5-methyl indan-1,3-dione]	45	76	15	35				
Cc1ccc2c(O)c(C#N)c(=O)oc2c1 [Example 14, 3-Cyano-4-hydroxy-7-methyl coumarin]	45	74	14	18				
N#CC1C(=O)c2ccc(Cl)cc2C1=O (stereo not drawn) [Example 7, 5-Chloro-2-cyano indan-1,3-dione]			15			33		inhibition in vivo at 25 mg/kg [3]: 76%; inhibition in vivo at 10 mg/kg [2]: 21%
Cc1cc2oc(=O)c(C#N)c(O)c2cc1C [Example 11, 3-Cyano-6,7-dimethyl-4-hydroxycoumarin monohydrate]	51	72	16	11				
CCc1cc2oc(=O)c(C#N)c(O)c2cc1CC [Example 12, 3-Cyano-6,7-diethyl-4-hydroxy coumarin]					72	68	93	inhibition in vivo at 2.5 mg/kg [3]: 64%
COc1ccc2oc(=O)c(C#N)c(O)c2c1 [Example 20, 3-Cyano-4-hydroxy-6-methyloxycoumarin]	54	72	29	36				
